From patent publication US20240124872A1, “IDENTIFICATION OF GENOMIC TARGETS” (University of Leeds, priority 2021, published 2024)

Key:
[1] = tested on: HeLa cells stably expressing CaMPARI-H396K; experiment: AITC responsiveness via Fura-2 calcium imaging; assay type: cell-based; conditions: unmodified HeLa cells stably expressing CaMPARI-H396K (HeLa-C); FIG. 4
Protocol: FIG. 4 provides validation of TAGS (AITC-screen for TRPA1). a) a Piggy-Bac library was generated in Hela-C cells, stimulated with 100 uM AITC and co-incident photo-conversion light, and sorted via FACS based on CaMPARI red/green signal. b) Positive clones were collected as single cells, expanded into clonal populations, and testing for AITC responsiveness via Fura-2 calcium imaging. Percent responding cells are shown for each population. c-d) Example Fura-2 imaging traces. c) phenotypic negativity of HeLa-C cells. d) Example traces from population #22 in b. e) Genotyping of 100% responders. […] Blue arrows highlight transcription start site (TSS) of TRPA1. Red arrows highlight the true common insertion site (CIS) upstream of the TSS, found in every clone genotyped.
A test sample from each positive clonal line was loaded with the fluorescent calcium indicator Fura-2AM for 30 minutes in regular media supplemented with 1 ul/ml PluronicF127, washed with Ringer solution, and tested for positivity for the phenotype in question using conventional fluorescent microscopy (see FIG. 4a-d). A further test sample from confirmed positive clonal lines was transfected (as described above) with the pCAG-Cre vector (Addgene) to induce transient Cre recombinase expression. Phenotypic positivity was then re-tested as above, and populations in which the phenotype […] are discarded. […]

[2] = tested on: TRPA1 knockout mice; conditions: cited from earlier work

C=CCN=C=S [AITC]
AITC responses (calcium signalling) [1]: phenotypically negative
sensitivity to AITC [2]: lose all sensitivity
